In patent publication US20240390484A1 (priority 2022, published 2024):
Where two headings read alike, the source gives them in different places.

Columns and labels:
[1] = Particle size and polydispersity index (PDI) by Dynamic Light Scattering; assay type: physicochemical; details: for “Ready-to-use” S2P RNA formulation PDI / “Ready-to-use” S2P RNA formulation Size: 48/40.5/10/1.5 mol %, blank-LNP added to lyophilized S2P RNA (55 ug/vial), N/P 7
Protocol: (§1) Lipid nanoparticles (LNPs) were formed or formulated by rapid mixing of an ethanol phase and an aqueous phase using a microfluidic device. The aqueous phase included a 50 mM citrate buffer (pH 5.5). The ethanol phase included an ionizable lipid (as described herein), cholesterol (Jiangsu Southeast Nanomaterials), 1,2-diastearoyl-sn-glycero-3-phosphocholine (DSPC) (Jiangsu Southeast Nanomaterials) and 1,2-dimyristoyl-rac-glycero-3-methoxypolyethylene glycol-2000 (DMG-PEG2000) (SINOPEG). A series of ionizable lipids were evaluated. These four lipid components were mixed at defined molar ratios in ethanol, for instance, at a molar ratio of 48:40.5:10:1.5 (ionizable lipid:cholesterol:DSPC:DMG-PEG2000). The generated LNP particles were purified in citrate buffer (containing sucrose) and characterized with respect to particle size, polydispersity index (PDI) and ionizable lipid concentration. The LNP solution was then diluted to the target concentration and stored at 2-8° C.
(§2) In the case of a filled LNP, for example, an LNP-encapsulated S-2P RNA liquid drug product, the preparation protocol is essentially the same, except that it was an aqueous solution of S-2P RNA in citrate buffer pH 5-6 that constitutes the aqueous phase for LNP formation. The LNP-encapsulated RNA formulation is also referred to as “RNA-LNP” in this disclosure. Regarding characterization, particle size and polydispersity index (PDI) of the RNA-LNP were determined by Dynamic Light Scattering (DLS); RNA encapsulation efficiency and concentration were determined by means of Ribogreen® assay and RNA purity was determined by agarose gel electrophoresis.
(§3) The “ready-to-use” RNA product was manufactured by transferring a predetermined amount of already formed LNP in solution to a sealed vial containing the lyophilized RNA composition, followed by mixing at room temperature. The amount of LNP added per vial (e.g., 30-100 μg RNA per vial) was determined based on the molar ionizable lipid:RNA (N/P) molar ratio of 7. In this disclosure, “ready-to-use” S-2P RNA formulations (also referred to as “LNP(S-2P RNA)”) containing 30-100 μg/mL S-2P RNA were prepared, and then characterized with respect to particle size, polydispersity index, as well as RNA concentration, complexation efficiency, and purity using the same methods as described above in Example 3.

[2] = RNA encapsulation/complexation efficiency by Ribogreen assay; assay type: physicochemical; details: for “Ready-to-use” S2P RNA formulation RNA complexation efficiency: 48/40.5/10/1.5 mol %, blank-LNP added to lyophilized S2P RNA (55 ug/vial), N/P 7
Protocol: as §2, §3

BHK-21 cells = assay type: cell-based; details: 4 μg
Vero E6 cells = assay type: cell-based; details: 4 μg
[3] = Stability of blank-LNP at 2-8° C. (particle size, PDI); assay type: physicochemical; details: blank-LNP 48/40.5/10/1.5 mol %
Protocol: as §1
Each generated blank-LNP formulation was added to and mixed with lyophilized S2P RNA, altogether yielding a series of “ready-to-use” S2P RNA test items containing the different ionizable lipids. The pharmaceutical characteristics (Table 3) and in vitro transfection efficiency (Table 4) of these “ready-to-use” RNA test items were compared head-to-head. In parallel, the stability profiles of these […] blank-LNP formulations (i.e. without RNA complexation) were assessed at 2-8° C. (see Table 5).
The generated fourteen blank-LNP formulations were characterized in terms of particle size and PDI, both at the end of manufacturing (T=0) and 8-week storage at 2-8° C. […] (defined as size increase ≤20 nm in 8 weeks), namely DMG-PEG2000 between at least 1-4 mol %, DSPC between at least 5-20 mol %, ionizable lipid between at least 30-70 mol % and cholesterol between at least 18.5-58.5 mol %.

[4] = blank-LNP, 48/40.5/10/1.5 mol % ionizable lipid/cholesterol/DSPC/DMG-PEG
[5] = ionizable lipid/Chol/DSPC/DMG-PEG 20/57.0/20/3.0 mol %
[6] = ionizable lipid/Chol/DSPC/DMG-PEG 30/55.0/12/3.0 mol %
[7] = ionizable lipid/Chol/DSPC/DMG-PEG 40/48.5/10/1.5 mol %
[8] = ionizable lipid/Chol/DSPC/DMG-PEG 45/43.5/10/1.5 mol %
[9] = ionizable lipid/Chol/DSPC/DMG-PEG 50/38.5/10/1.5 mol %
[10] = ionizable lipid/Chol/DSPC/DMG-PEG 60/30.0/8.5/1.5 mol %
[11] = ionizable lipid/Chol/DSPC/DMG-PEG 70/22.5/6/1.5 mol %
[12] = ionizable lipid/Chol/DSPC/DMG-PEG 70/22.5/6.0/1.5 mol %
[13] = ready-to-use S2P RNA, 48 hours post transfection, 48/40.5/10/1.5 mol %

## CCCCCCCCCOC(=O)CCCCCCCOc1ccc(OCCCCCCCC(=O)OC(CCCCCCCC)CCCCCCCC)cc1COC(=O)CCCN(C)C
[1]
  “Ready-to-use” S2P RNA formulation PDI: 0.12
  “Ready-to-use” S2P RNA formulation Size: 173 nm
[1]; [4]
  Blank-LNP PDI: 0.13
  Blank-LNP Size: 88 nm
[1]; [5]
  Blank-LNP PDI: 0.18
  Blank-LNP Size: 82 nm
  “Ready-to-use” S2P RNA PDI: 0.21
  “Ready-to-use” S2P RNA Size: 157 nm
[1]; [6]
  Blank-LNP PDI: 0.2
  Blank-LNP Size: 75 nm
  “Ready-to-use” S2P RNA PDI: 0.21
  “Ready-to-use” S2P RNA Size: 125 nm
[1]; [7]
  Blank-LNP PDI: 0.12
  Blank-LNP Size: 90 nm
  “Ready-to-use” S2P RNA PDI: 0.18
  “Ready-to-use” S2P RNA Size: 169 nm
[1]; [8]
  Blank-LNP PDI: 0.04
  Blank-LNP Size: 87 nm
  “Ready-to-use” S2P RNA PDI: 0.12
  “Ready-to-use” S2P RNA Size: 151 nm
[1]; [9]
  Blank-LNP PDI: 0.11
  Blank-LNP Size: 83 nm
  “Ready-to-use” S2P RNA PDI: 0.13
  “Ready-to-use” S2P RNA Size: 147 nm
[1]; [10]
  Blank-LNP PDI: 0.15
  Blank-LNP Size: 76 nm
  “Ready-to-use” S2P RNA PDI: 0.13
  “Ready-to-use” S2P RNA Size: 143 nm
[1]; [11]
  Blank-LNP PDI: 0.21
  Blank-LNP Size: 77 nm
  “Ready-to-use” S2P RNA PDI: 0.16
  “Ready-to-use” S2P RNA Size: 146 nm
[2]
  “Ready-to-use” S2P RNA formulation RNA complexation efficiency: 42%
[2]; [5]
  “Ready-to-use” S2P RNA, RNA complex. efficiency: 54%
[2]; [6]
  “Ready-to-use” S2P RNA, RNA complex. efficiency: 61%
[2]; [7]
  “Ready-to-use” S2P RNA, RNA complex. efficiency: 51%
[2]; [8]
  “Ready-to-use” S2P RNA, RNA complex. efficiency: 50%
[2]; [9]
  “Ready-to-use” S2P RNA, RNA complex. efficiency: 48%
[2]; [10]
  “Ready-to-use” S2P RNA, RNA complex. efficiency: 44%
[2]; [11]
  “Ready-to-use” S2P RNA, RNA complex. efficiency: 40%
BHK-21 cells; [5]
  RBD expression in BHK-21 cells: 0.082 ng/mL
BHK-21 cells; [6]
  RBD expression in BHK-21 cells: 1.655 ng/mL
BHK-21 cells; [7]
  RBD expression in BHK-21 cells: 1.517 ng/mL
BHK-21 cells; [8]
  RBD expression in BHK-21 cells: 2.090 ng/mL
BHK-21 cells; [9]
  RBD expression in BHK-21 cells: 1.887 ng/mL
BHK-21 cells; [10]
  RBD expression in BHK-21 cells: 0.812 ng/mL
BHK-21 cells; [12]
  RBD expression in BHK-21 cells: <LOD
Vero E6 cells; [5]
  RBD expression in Vero E6 cells: <LOD
Vero E6 cells; [6]
  RBD expression in Vero E6 cells: 0.129 ng/mL
Vero E6 cells; [7]
  RBD expression in Vero E6 cells: 1.204 ng/mL
Vero E6 cells; [8]
  RBD expression in Vero E6 cells: 1.842 ng/mL
Vero E6 cells; [9]
  RBD expression in Vero E6 cells: 1.633 ng/mL
Vero E6 cells; [10]
  RBD expression in Vero E6 cells: 1.239 ng/mL
Vero E6 cells; [12]
  RBD expression in Vero E6 cells: 0.0939 ng/mL
[3]; 1 month
  PDI, T = 1 month: 0.09
  Size, T = 1 month: 88 nm
[3]
  Change in size (nm) vs. T0, T = 2 weeks: −9 nm
  PDI, T = 2 weeks: 0.06
  Size, T = 2 weeks: 79 nm
  PDI, T = 0: 0.13
  Size, T = 0: 88 nm

## CCCCCCOCCC/C=C/COC(=O)CCCCCCCCC(CCCCCCCCC(=O)OC/C=C/CCCOCCCCCC)OC(=O)CCCN(C)C [Lipid #11]
[1]
  “Ready-to-use” S2P RNA formulation PDI: 0.11
  “Ready-to-use” S2P RNA formulation Size: 266 nm
[1]; [4]
  Blank-LNP PDI: 0.09
  Blank-LNP Size: 165 nm
[2]
  “Ready-to-use” S2P RNA formulation RNA complexation efficiency: 34%
BHK-21 cells; [13]
  RBD expression in BHK-21 cells: 0.52 ng/mL
Vero E6 cells; [13]
  RBD expression in Vero E6 cells: 0.20 ng/mL
[3]; 1 month
  Change in size (nm) vs. T0, T = 1 month: +59 nm
  PDI, T = 1 month: 0.06
  Size, T = 1 month: 224 nm
[3]
  Change in size (nm) vs. T0, T = 2 weeks: +42 nm
  PDI, T = 2 weeks: 0.04
  Size, T = 2 weeks: 207 nm
  PDI, T = 0: 0.09
  Size, T = 0: 165 nm
